Laboratory results from paper PMC6271500, “Bowman-Birk Protease Inhibitor from Vigna unguiculata Seeds Enhances the Action of Bradykinin-Related Peptides” (Molecules, 2014).

Test system: BTCI
Experiment: Fluorescence quenching of BTCI by Bk-related peptides
Format: binding, Vigna unguiculata
Conditions: for Binding constant Kb (association) of BTCI in complex with peptide / Stern-Volmer quenching constant KSV of BTCI in complex with peptide: BTCI 25 µM, peptide 25-500 µM; for Stern-Volmer quenching constant KSV of BTCI in complex with peptide: excitation 295 nm, emission at 355 nm
Experimental: Fluorescence measurements were performed at pH 5.0, 7.4 and 9.0 and 25 °C using the Jasco FP-6500 spectrofluorimeter (Jasco Analytical Instruments) coupled to a Jasco ETC-273T Peltier system (Jasco Analytical Instruments) with water circulation. Both excitation and emission slit were fitted to 5.0 nm and the excitation and emission wavelength were 295 nm and 300–400 nm, respectively. The concentration of BTCI was 25 µM, whereas the concentration of Bk and Bk-related peptides varied from 25 to 500 µM. The BTCI in complex with peptides were investigated by fluorescence quenching as a function of pH. The averages of five fluorescence spectra were recorded and processed by the program Spectra Manager (Jasco Analytical Instruments). The fluorescence emissions were fitted according to the classic Stern-Volmer equation (Equation (2)): F0/F = 1 + KSV[Q] (2) where F and F0 are the fluorescence intensities in the presence and absence of quencher, respectively, KSV is Stern-Volmer constant and Q is the concentration of the quencher.
The binding constants for BTCI, Bk and Bk-related peptides interaction were calculated according to Equation (3): Log[(F0 − F)/F] = LogKb + nLog[Q] (3) where Kb is the binding constant and n is the number of binding sites per BTCI [47].

## [Val]^1[Thr]^6-bradykinyl-Gln-Ser [Bk2]
pH 5.0, 25 °C
  binding sites (n) per BTCI molecule: 1.04
  Binding constant Kb (association) of BTCI in complex with peptide: 590 M⁻¹
  Stern-Volmer quenching constant KSV of BTCI in complex with peptide: 425 M⁻¹
pH 7.4, 25 °C
  binding sites (n) per BTCI molecule: 0.89
  Binding constant Kb (association) of BTCI in complex with peptide: 220 M⁻¹
  Stern-Volmer quenching constant KSV of BTCI in complex with peptide: 509 M⁻¹
pH 9.0, 25 °C
  binding sites (n) per BTCI molecule: 1.23
  Binding constant Kb (association) of BTCI in complex with peptide: 1810 M⁻¹
  Stern-Volmer quenching constant KSV of BTCI in complex with peptide: 384 M⁻¹
